Results on 1 molecule are retold here after patent US20220273660A1, “MEK INHIBITOR FOR TREATMENT OF STROKE” (EDVINCE AB, priority 2019, published 2022).

The structures appear in SMILES notation. Entries after “also recorded” stand apart in the source; their conditions may differ.

In assay [1] the test system is rat basilar arteries (contractile ETB receptors). The experiment in a line: 48 h organ culture of basilar artery, S6c (ETB agonist)-induced contraction in wire myograph. Type of assay: cell-based. The procedure: (§1) Rats were sedated with O2/CO2 (30/70%) and sacrificed by decapitation. Brains were gently removed and chilled in a cold oxygenated buffer solution of the following composition: 119 mM NaCl, 4.6 mM KCl, 1.5 mM CaCl2, 1.2 mM MgCl2, 1.2 mM NaH2PO4, 15 mM NaHCO3 and 5.5 mM Glucose; pH 7.4. The basilar artery (BA) was carefully dissected from the brain in a physiological buffer solution followed by either OC (naïve animals) or directly mounted in a wire myograph (arteries from rats which has undergone surgical procedures). Segments were incubated for 48 hours at 37° C. in humidified 5% CO2/O2 in DMEM supplemented with streptomycin and penicillin with inhibitors or vehicle (DMSO). Culture media was changed after 24 hours.
For contractility measurements, both incubated BAs (ex vivo) and BAs after surgical procedure (in vivo) were cut into segments and mounted on a pair of metal wires (40 μm) in a myograph bath. The arteries from OC were mounted the same way after 48 hours in media. One wire was attached to a micro-meter screw which allows for fine adjustments of the distance between the wires, controlling the vascular tone.
The segments were equilibrated in physiological buffer aerated with 95% O2/5% CO2, pH of 7.4, temperature set at 37° C. and the wires were separated for isometric pretension at 2 Nm^−1. The arterial segments were exposed two or three times with 60 mM K^+, by exchanging the buffer with a 60 mM K^+ buffer solution. To maintain equal osmolarity, a proportional amount of Na^+ had been removed from the buffer. An absolute cut-off was set at 2.0 mN K^+max for inclusion of arterial segments from rats that underwent the surgical procedure. Endothelium function was evaluated with the addition of 5-HT (3.10^−7 M) followed by carbachol (10^−5 M). For arteries from the OC the protocol was as followed: first a cumulative concentration-response curve to sarafotoxin 6C (S6c, 10^−14-10^−7 M), followed by a concentration-response curve to endothelin-1 (ET-1, 10^−14-10^−7 M). At peak ET-1 (10^−7 M), the buffer was changed to a Ca^2+-free buffer containing 10^−7 M ET-1 and nimodipine (L-type of voltage dependent Ca^2+ channel entry blocker, 10^−7 M). A concentration-response curve to Ca^2+ (0.0125-3 mM) was then performed. When vasodilation was investigated arteries was precontracted with U46619 (1.10^−7-3.10^−7 M) or K^+ (41 mM) and cumulative concentration-response curves was performed by adding calcitonin gene-related peptide (CGRP, 10^−12-10^−7 M), carbachol (10^−10-10^−5 M) or SNP (10^−11-10^−4 M).
Contractile responses of each segment were adjusted according to the length of the artery and are expressed as mN/mm (Nm^−1). […] To compare ET-1 sensitivity, arteries were normalized to the percentage of the individual vessel ET-1max. When the artery reached maximum contraction before the last concentration was added, the curves were constrained to the max contraction. The relative log IC50/log EC50 is the concentration corresponding to a response midway between the estimates of the lower and upper plateaus. The Emax is the maximal contraction in the concentration response curve and ET-1max is the maximal contraction to ET-1. All quantitative data is presented as mean±standard error of the mean (SEM), unless otherwise stated.

In another assay the test system is rat basilar arteries. The experiment in a line: 48 h organ culture of basilar artery, VDCC independent contraction (Ca2+ curve after ET-1 precontraction with nimodipine). As to conditions: 1 μM inhibitor, 48 h OC, 10^-7 M nimodipine. In kind it is cell-based. The method, then: as §1
The segments were equilibrated in physiological buffer aerated with 95% O2/5% CO2, pH of 7.4, temperature set at 37° C. and the wires were separated for isometric pretension at 2 Nm^−1. The arterial segments were exposed two or three times with 60 mM K^+, by exchanging the buffer with a 60 mM K^+ buffer solution. To maintain equal osmolarity, a proportional amount of Na^+ had been removed from the buffer. An absolute cut-off was set at 2.0 mN K^+max for inclusion of arterial segments from rats that underwent the surgical procedure. Endothelium function was evaluated with the addition of 5-HT (3.10^−7 M) followed by carbachol (10^−5 M). […]

In assay [2] the test system is rat subarachnoid hemorrhage model. The assay can be described thus: In vivo SAH, intraperitoneal trametinib, ET-1 concentration-response in BAs (Example 11).
Procedure: Thirty-two rats were operated for this study. Animals were treated intraperitoneally with 250 μl/body weight of a 1 mM solution of trametinib (Selleckchem), yielding a final dose of 95 μg/body weight, diluted in 10% cremophor and 10% PEG400 in NaCl. Animals in the vehicle and sham group were treated with 250 μl/body weight 10% cremophor and 10% PEG400 in NaCl. Treatment was intraperitoneally administered either at 1 h and 24 h or 6 h and 24 h post surgery. Animals were terminated 48 h after surgery by CO2 anesthesia and decapitation.

On to `CC(=O)Nc1cccc(-n2c(=O)n(C3CC3)c(=O)c3c(Nc4ccc(I)cc4F)n(C)c(=O)c(C)c32)c1` [trametinib], for which the “inhibition of S6c-induced contraction (initial screening groups)” value in assay [1] (1 μM inhibitor, 48 h organ culture, S6c contraction relative to 60 mM K+) is listed as “Highly effective; also recorded: almost completely inhibited”. In addition, the IC50 in assay [1] (Rattus norvegicus, 48 h organ culture, inhibition of S6c-induced contraction, read-out: pIC50 (based on the Emax for S6c) (converted)) is 20.9 nM. In assay [1] (at predicted CSF concentration of approximately 10^-7 M), the “estimated inhibitor effect in the ex vivo OC study” value is on record as around 75%. Moreover, in the assay with rat basilar arteries, the VDCC independent contraction result is “significantly prevented”. Further, the “increased ET-1-induced concentration-response curve in BAs after SAH” value in assay [2] (i.p. 1 mM at 1 and 24 h post-SAH) is “significantly inhibited”; in assay [2] (i.p. 1 mM at 6 and 24 h post-SAH) it was “significantly inhibited”.
